What all share (type): cell-based, human
The subject of one assay is HTT mRNA. In words: Splicing RT-qPCR assay, HTT canonical (CJ) and alternative (AJ) junction mRNA. The conditions noted are these: Homo sapiens; for IC50: canonical junction mRNA; for AC50: alternative junction mRNA, read-out: HTT AJ (AC50, increase in AJ mRNA). The gist of the method:
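A673 cells (DMEM, 10% FBS) or K562 cells (IMDM, 10% FBS) were treated for 24 h at 37° C with an 11-point 3-fold dilution series, top dose 10 uM, DMSO ≤0.25%. Canonical and alternative junction mRNA was measured in lysates by one-step RT-qPCR. Normalization used PPIA for A673 and GAPDH or GUSB for K562.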
Background: In qPCR the cycle at which signal appears reflects the starting amount.

For a further assay, the system named is Target C. Put plainly: HiBiT protein abundance assay, Target C (K562 HiBiT knock-in). Conditions: HiBiT knock-in cells, 24 hours. In a few lines:
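K562 HiBiT knock-in cells (10000/well) in IMDM + 1% FBS were treated for 24 h at 37° C. with a 10-point 3-fold dilution series (top 10 μM final), with DMSO ≤0.25%. Unmodified K562 served as baseline. HiBiT lytic luminescence was normalized to controls, and IC50 was interpolated at 50% from a four-parameter fit.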
On the technique in general: HiBiT is a short tag that completes a luciferase, so light tracks the accessible tagged protein.

The subject of a further assay is Target C mRNA. In words: Splicing RT-qPCR panel, Target C canonical junction (CJ) mRNA. The conditions noted are these: Homo sapiens, read-out: Target C CJ (decrease in CJ mRNA levels, IC50). In a few lines: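 A673 cells (DMEM, 10% FBS) or K562 cells (IMDM, 10% FBS) treated 24 h at 37 °C with an 11-point 3-fold dilution, top 10 uM, DMSO ≤0.25%. Canonical-junction mRNA quantified in lysates by RT-qPCR, normalised to GAPDH, GUSB or PPIA and to DMSO (2^−ΔΔCt), then converted to % response.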

Where [1] appears, read: 24 h, RT-qPCR, A673 or K562 cells, 24 hours treatment, read-out: HTT CJ (IC50, decrease in CJ mRNA).
The mark [2] stands for this setting: qPCR panel, read-out: HTT CJ (decrease in CJ mRNA levels, IC50).
[3] abbreviates: RT-qPCR, A673 or K562 cells, 24 hours treatment.

Read-outs that look alike come from different tables or passages of the source. A value given as a limit tells only on which side of the number the result lay.

On to `Cc1c(O)c(-c2ccc3nc(N4CCNCC4)cnc3n2)cc2cn(C)nc12` [Compound 197, 2,7-dimethyl-5-[2-(piperazin-1-yl)pyrido[2,3-b]pyrazin-6-yl]indazol-6-ol], for which the IC50 with HTT mRNA (setting [1]), with HTT mRNA (setting [2]), in the assay on Target C and with Target C mRNA was 100 to 1000 nM throughout. Also, in the assay with HTT mRNA (setting [3]), the AC50 is 100 to 1000 nM.

Take `Cc1c(O)c(-c2ccc3nc(N4CCC(N(C)C)CC4)cnc3n2)cc2cn(C)nc12` [Compound 198]: the IC50 in the assay on HTT mRNA (setting [1]) is 1000 to 10000 nM; in the assay on HTT mRNA (setting [2]), below 100 nM; in the assay with Target C, 1000 to 10000 nM; with Target C mRNA it was 100 to 1000 nM. The AC50 in the assay with HTT mRNA (setting [3]) is above 10000 nM.

For the compound `Cn1cc2cc(-c3ccc4cc(N5CC[C@@H](NC(C)(C)C)C5)cnc4n3)c(O)cc2n1` [Compound 199], the IC50 in the assay with HTT mRNA (setting [1]), in the assay with HTT mRNA (setting [2]), in the assay with Target C and in the assay on Target C mRNA was 1000 to 10000 nM each time. The AC50 in the assay with HTT mRNA (setting [3]) fell in the range of 1000 to 10000 nM.

Turning to `Cc1cn2cc(-c3cnc4nc(C5CCNCC5)ccc4c3)cc(C)c2n1` [Compound 201], the IC50 is above 10000 nM in the assay on HTT mRNA (setting [1]), below 100 nM in the assay with HTT mRNA (setting [2]), above 10000 nM with Target C and below 100 nM in the assay on Target C mRNA. Further, in the assay on HTT mRNA (setting [3]), the AC50 was above 10000 nM.

On to `CN[C@@H]1CCN(c2cnc3nc(-c4cc(F)c5nc(C)cn5c4)ncc3c2)C1` [Compound 202, (3R)-1-(2-{8-fluoro-2-methylimidazo[1,2-a]pyridin-6-yl}pyrido[2,3-d]pyrimidin-6-yl)-N-methylpyrrolidin-3-amine], for which the IC50 in the assay on HTT mRNA (setting [1]), in the assay with HTT mRNA (setting [2]), in the assay with Target C and in the assay with Target C mRNA was 100 to 1000 nM in each case. For the same compound, in the assay on HTT mRNA (setting [3]), the AC50 was 100 to 1000 nM.

Regarding `CC1CN(c2cnc3nc(-c4cc(F)c5nn(C)cc5c4)cc(Cl)c3c2)CCN1` (stereo not drawn) [Compound 203, 4-chloro-2-(7-fluoro-2-methyl-2H-indazol-5-yl)-6-(3-methylpiperazin-1-yl)-1,8-naphthyridine 2,2,2-trifluoroacetate], the IC50 with HTT mRNA (setting [1]) is 100 to 1000 nM; in the assay on HTT mRNA (setting [2]) it was 100 to 1000 nM; in the assay with Target C it was 1000 to 10000 nM; in the assay on Target C mRNA, 1000 to 10000 nM. For the same compound, the AC50 in the assay on HTT mRNA (setting [3]) lay in the range of 1000 to 10000 nM.

Turning to `Cc1c(O)c(-c2cc(Cl)c3cc(N(C)C4CCNC4)cnc3n2)cc2cn(C)nc12` (stereo not drawn) [Compound 204, 5-[4-chloro-6-(367pyrrolidine-3-ylamino)-1,8-naphthyridin-2-yl]-2,7-dimethylindazol-6-ol], the IC50 with HTT mRNA (setting [1]) was 1000 to 10000 nM; in the assay with HTT mRNA (setting [2]), 1000 to 10000 nM; with Target C, 1000 to 10000 nM; with Target C mRNA it was above 10000 nM. Besides, the AC50 in the assay on HTT mRNA (setting [3]) is 1000 to 10000 nM.

Regarding `Cc1cn2nc(-c3ccc4cc(N(C)C5CCNCC5)cnc4n3)cc(C)c2n1` [Compound 205, 7-{2,8-dimethylimidazo[1,2-b]pyridazin-6-yl}-N-methyl-N-(piperidin-4-yl)-1,8-naphthyridin-3-amine], the half-inhibitory concentration (IC50) in the assay with HTT mRNA (setting [1]), with HTT mRNA (setting [2]), with Target C and in the assay on Target C mRNA was above 10000 nM each time. In addition, the AC50 in the assay with HTT mRNA (setting [3]) is above 10000 nM.

On to `C[C@@H]1CN(c2cnc3nc(-c4cc5cn(C)nc5c(F)c4O)ccc3c2)C[C@H](C)N1` [Compound 206], for which the IC50 was below 100 nM in the assay with HTT mRNA (setting [1]), below 100 nM with HTT mRNA (setting [2]), 100 to 1000 nM in the assay with Target C and 100 to 1000 nM in the assay on Target C mRNA. In the assay with HTT mRNA (setting [3]), the AC50 was 100 to 1000 nM.

The IC50 is the concentration at which inhibition is half-maximal. What is called AC50 is the concentration giving half of the maximal activity seen.

Values taken from patent publication US20250326748A1, “COMPOUNDS AND METHODS FOR MODULATING SPLICING” (REMIX THERAPEUTICS INC., priority 2022, published 2025).
